Assay results taken from patent publication US20250154193A1, “STEROID COMPOUND, AND PREPARATION METHOD THEREFOR AND APPLICATION THEREOF” (CHOLESGEN (SHANGHAI) CO., LTD., priority 2022, published 2025).

Test system: SREBP pathway
Experiment: SREBP luciferase reporter gene system (SRE-luciferase assay) in Huh-7/SRE-Luc cells
Type: cell-based
Conditions: Homo sapiens, sterol-deficient medium, compound treatment 16 hours, luciferase/GFP ratio
Experimental: Huh-7/SRE-Luc, a human hepatocellular carcinoma cell line, was grown in a culture medium containing DMEM, 10% fetal bovine serum, 100 units/mL penicillin, 100 µg/mL streptomycin, and 200 μg/mL G418.
The Huh-7/SRE-Luc cell line is a human hepatocellular carcinoma cell line Huh-7 stably expressing LDLR promoter-luciferase and green fluorescent protein (GFP). The LDLR promoter region contains a sterol regulatory element (SRE) that can effectively and sensitively respond to the regulation of the transcription factor SREBP. The GFP signal serves as an internal reference to indicate changes in cell number. Therefore, this cell line can be used to screen for active small molecules that regulate the SREBP signaling pathway. […] Cells were incubated in a sterol-deficient medium (5% lipoprotein-deficient serum, 2 μM Lovastatin, 10 μM mevalonate) and treated with corresponding concentrations of compounds for 16 hours. After compound treatment, the cells were lysed with lysis buffer (E397A, Promega), followed by the addition of luciferase substrate (E1500, Promega). The SRE-driven luciferase activity was measured using a BioTek Synergy HTX microplate reader (including but not limited to this type of instrument). The fluorescence intensity of enhanced green fluorescent protein (EGFP) was also measured using the BioTek microplate reader (including but not limited to this type of instrument) and used as an internal reference. The ratio of SRE-driven luciferase activity to GFP fluorescence intensity was used as an indicator of SREBP pathway activity. The test data of each test compound was analyzed using Prism software to obtain the IC50 parameter of the compound.
The inhibitory effect of the compounds of the present disclosure on the SREBP pathway was tested by the method of bioassay example 2. The concentration gradient of each compound was designed as 0.01, 0.03, 0.1, 0.3, 1.0, 3.0, and […], with DMSO as a vehicle control.

Going from `C[C@H](CCCC(C)(C)O)[C@H]1CC[C@H]2[C@@H]3CC(=O)[C@H]4C[C@@H](O)CC[C@]4(C)[C@H]3CC[C@]12C` [compound 255, 3P,25-dihydroxy-5α-cholest-6-one] to `C[C@H](CCCC(C)(C)O)[C@H]1CC[C@H]2[C@@H]3/C(=N/O)C[C@H]4C[C@@H](O)CC[C@]4(C)[C@H]3CC[C@]12C` [compound 285, [(1R,3aS,3bR,4E,5aS,7S,9aS,9bS,11aR)-7-hydroxy-1-[(2R)-6-hydroxy-6-methylheptan-2-yl]-9a,11a-dimethylhexadecahydro-1H-cyclopenta[1,2-a]phenanthren-4-ylidene]hydroxylamine], the IC50 rises from 0.452 µM to 0.793 µM (1.8-fold). The first is the more potent here.

Compared with `C[C@H](CCCC(C)(C)O)[C@H]1CC[C@H]2[C@@H]3CCC4(F)C[C@@H](O)CC[C@]4(C)[C@H]3CC[C@]12C` (stereo partly drawn) [compound 266, 5-fluorocholest-3β,25-diol], `C[C@H](CCCC(C)(C)O)[C@H]1CC[C@H]2[C@@H]3CCC4(O)C(=O)[C@@H](O)CC[C@]4(C)[C@H]3CC[C@]12C` (stereo partly drawn) [compound 276, 3P,5,25-trihydroxycholest-4-one] is 3-fold higher in IC50: 0.176 µM for the first, 0.522 µM for the second.

Going from `C[C@H](CCN(C)C(=O)c1ccccc1F)[C@H]1CC[C@H]2[C@@H]3CC[C@H]4C[C@@H](O)CC[C@]4(C)[C@H]3CC[C@]12C` [compound 268, 2-fluoro-N-[(3R)-3-[(1R,3aS,3bR,5aS,7S,9aS,9bS,11aR)-7-hydroxy-9a,11a-dimethylhexadecahydro-1H-cyclopenta[1,2-a]phenanthren-1-yl]butyl]-N-methylbenzamide] to `C[C@H](CCCC(C)(O)c1ccccc1F)[C@H]1CC[C@H]2[C@@H]3CC[C@H]4[C@@H](O)[C@@H](O)CC[C@]4(C)[C@H]3CC[C@]12C` (stereo partly drawn) [compound 278, 24-[1-(2-fluorophenyl)-1-hydroxyethyl]-5α-cholan-3β,4β-diol], the IC50 falls from 0.825 µM to 0.106 µM (7.8-fold).

`C[C@H](CCCC(O)c1ccccc1F)[C@H]1CC[C@H]2[C@@H]3C(=O)C[C@H]4[C@@H](O)[C@@H](O)CC[C@]4(C)[C@H]3CC[C@]12C` (stereo partly drawn) [compound 271, 24-[(2-fluorophenyl)(hydroxy)methyl]-4β-hydroxy-3β-hydroxy-5α-cholan-7-one] and `C[C@H](CCCC(O)c1c(F)cccc1F)[C@H]1CC[C@H]2[C@@H]3C(=O)C[C@H]4[C@@H](O)[C@@H](O)CC[C@]4(C)[C@H]3CC[C@]12C` (stereo partly drawn) [compound 289, 24-[(2,6-difluorophenyl)(hydroxy)methyl]-4β-hydroxy-3β-hydroxy-5α-cholan-7-one] are within 1.5-fold of each other in IC50: 0.139 µM for the first, 0.117 µM for the second.

`C[C@H](CCCC(C)(C)O)[C@H]1CC[C@H]2[C@@H]3C[C@H](O)[C@H]4[C@@H](O)[C@@H](O)CC[C@]4(C)[C@H]3CC[C@]12C` [compound 272, 5α-cholest-3β,4P,6α,25-tetraol] and `C[C@H](CCCC(C)(C)O)[C@H]1CC[C@H]2[C@@H]3C[C@@H](N)[C@H]4[C@@H](O)[C@@H](O)CC[C@]4(C)[C@H]3CC[C@]12C` [compound 295, 6-amino-5α-cholest-3β,4p,25-triol] cannot be ordered by IC50: 20.1 µM for the first, over 10 µM for the second.

`C[C@H](CCCC(O)c1cc(F)cc(F)c1)[C@H]1CC[C@H]2[C@@H]3CC[C@H]4[C@@H](O)[C@@H](O)CC[C@]4(C)[C@H]3CC[C@]12C` (stereo partly drawn) [compound 282, 24-[(3,5-difluorophenyl)(hydroxy)methyl]-5α-cholan-3β,4β-diol] and `C[C@H](CCCC(O)c1ccccc1)[C@H]1CC[C@H]2[C@@H]3CC[C@H]4[C@@H](O)[C@@H](O)CC[C@]4(C)[C@H]3CC[C@]12C` (stereo partly drawn) [compound 305, 24-(hydroxyphenylmethyl)-5α-cholan-3β,4β-diol] are within 1.5-fold of each other in IC50: 0.117 µM for the first, 0.119 µM for the second.

First: C[C@H](CCCC(O)c1ccccc1C(F)(F)F)[C@H]1CC[C@H]2[C@@H]3CC[C@H]4[C@@H](O)[C@@H](O)CC[C@]4(C)[C@H]3CC[C@]12C (stereo partly drawn) [compound 286, 24-{hydroxy[2-(trifluoromethyl)phenyl]methyl}-5α-cholan-30,40-diol]
Second: CC(O)CCC[C@@H](C)[C@H]1CC[C@H]2[C@@H]3CC[C@H]4[C@@H](O)[C@@H](O)CC[C@]4(C)[C@H]3CC[C@]12C (stereo partly drawn) [compound 304, 24-(1-hydroxyethyl)-5α-cholan-3β,4β-diol]
The IC50 of the first is 3.3-fold higher: 0.575 µM for the first, 0.173 µM for the second.

Going from `C[C@H](CCCC1(O)CC1)[C@H]1CC[C@H]2[C@H]3[C@H](CC[C@]12C)[C@@]1(C)CC[C@H](O)C[C@@H]1CC3(F)F` [compound 288, (1R,3aS,5aR,7S,9aS,11aR)-4,4-difluoro-1-[(2R)-5-(hydroxycyclopropyl)pentan-2-yl]-9a,11a-dimethylhexadecahydro-1H-cyclopenta[1,2-a]phenanthrene-7-ol] to `C[C@H](CCCC(O)c1c(F)cccc1F)[C@H]1CC[C@H]2[C@H]3[C@H](CC[C@]12C)[C@@]1(C)CC[C@H](O)C(=O)[C@@H]1CC3(F)F` (stereo partly drawn) [compound 301, (1R,3aS,3bS,5aR,7S,9aR,9bS,11aR)-1-[(2R)-6-(2,6-difluorophenyl)-6-hydroxyhexan-2-yl]-4,4-difluoro-7-hydroxy-9a,11a-dimethylhexadecahydro-1H-cyclopenta[1,2-α]phenanthren-6-one], the IC50 falls from 0.308 µM to 0.04 µM (7.7-fold).

`CC(O)C1CC[C@@]2(C)[C@@H](CC[C@@H]3[C@@H]2CC[C@]2(C)[C@@H]([C@H](C)CCCC(C)(C)O)CC[C@@H]32)C1` (stereo partly drawn) [compound 290, 3-(1-hydroxyethyl)-5α-cholest-25-ol] and `C[C@H](CCCC(C)(C)O)[C@H]1CC[C@H]2[C@@H]3CC[C@H]4CC(CO)CC[C@]4(C)[C@H]3CC[C@]12C` (stereo partly drawn) [compound 308, 3-(hydroxymethyl)-5α-cholest-25-ol] are within 1.5-fold of each other in IC50: 0.699 µM for the first, 0.979 µM for the second.

First: C[C@H](CCCC(C)(C)O)[C@H]1CC[C@H]2[C@@H]3CC[C@H]4C(F)(F)[C@@H](O)CC[C@]4(C)[C@H]3CC[C@]12C [compound 291, (1R,3aS,3bS,5aR,7S,9aR,9bS,11aR)-6,6-difluoro-1-[(2R)-6-hydroxy-6-methylheptan-2-yl]-9a,11a-dimethylhexadecahydro-1H-cyclopenta[1,2-a]phenanthrene-7-ol]
Second: C[C@H](CCCC(C)(C)O)[C@H]1CC[C@H]2[C@@H]3CC[C@H]4[C@@H](N)[C@@H](O)CC[C@]4(C)[C@H]3CC[C@]12C [compound 303, 4-amino-5α-cholest-3β,25-diol]
The IC50 of the first is 110-fold lower: 0.065 µM for the first, 7.08 µM for the second.

`C[C@H](CCCC(C)(C)O)[C@H]1CC[C@H]2[C@@H]3CC[C@H]4C[C@@H](OC(=O)CO)CC[C@]4(C)[C@H]3CC[C@]12C` [compound 292, (1R,3aS,3bR,5aS,7S,9aS,9bS,11aR)-1-[(2R)-6-hydroxy-6-methylheptan-2-yl]-9a,11a-dimethylhexadecahydro-1H-cyclopenta[1,2-i]phenanthren-7-yl hydroxyacetate] and `C[C@H](CCCC(C)(C)O)[C@H]1CC[C@H]2[C@@H]3CC[C@H]4C[C@@H](OC(=O)CC(=O)O)CC[C@]4(C)[C@H]3CC[C@]12C` [compound 293, 3-{[(1R,3aS,3bR,5aS,7S,9aS,9bS,11aR)-1-[(2R)-6-hydroxy-6-methylheptan-2-yl]-9a,11a-dimethylhexadecahydro-1H-cyclopenta[1,2-a]phenanthren-7-yl]oxy}-3-oxopropanoic acid] are within 1.5-fold of each other in IC50: 0.171 µM for the first, 0.136 µM for the second.

First: C[C@H](CCCC(C)(C)O)[C@H]1CC[C@H]2[C@@H]3CC[C@H]4C[C@@H](OC(=O)CCC(=O)O)CC[C@]4(C)[C@H]3CC[C@]12C [compound 294, 4-{[(1R,3aS,3bR,5aS,7S,9aS,9bS,11aR)-1-[(2R)-6-hydroxy-6-methylheptan-2-yl]-9a,11a-dimethylhexadecahydro-1H-cyclopenta[1,2-a]phenanthren-7-yl]oxy}-4-oxobutanoic acid]
Second: C[C@H](CCCC(C)(C)O)[C@H]1CC[C@H]2[C@@H]3CC[C@H]4CC(C(=O)O)CC[C@]4(C)[C@H]3CC[C@]12C (stereo partly drawn) [compound 309, 25-hydroxy-5α-cholest-3-carboxylic acid]
The IC50 of the first is 64-fold lower: 0.139 µM for the first, 8.96 µM for the second. The first is the more potent here.

First: C[C@H](CCCC(O)c1c(F)cccc1F)[C@H]1CC[C@H]2[C@@H]3C(N)C[C@H]4[C@@H](O)[C@@H](O)CC[C@]4(C)[C@H]3CC[C@]12C (stereo partly drawn) [compound 299, 7-amino-24-[(2,6-difluorophenyl)(hydroxy)methyl]-5α-cholan-3P,4β-diol]
Second: C[C@H](CCCC(C)(C)O)[C@H]1CC[C@H]2[C@@H]3CC[C@H]4CC(C)(O)CC[C@]4(C)[C@H]3CC[C@]12C (stereo partly drawn) [compound 307, 3-methylcholest-3,25-diol]
The IC50 of the first is 8.2-fold higher: 4.83 µM for the first, 0.588 µM for the second.

With `C[C@H](CCCC(C)(C)O)[C@H]1CC[C@H]2[C@@H]3CC[C@H]4CC(NS(C)(=O)=O)CC[C@]4(C)[C@H]3CC[C@]12C` (stereo partly drawn) [compound 310, N-[(1R,3aS,3bR,9aS,9bS,11aR)-1-[(2R)-6-hydroxy-6-methylheptan-2-yl]-9a,11a-dimethylhexadecahydro-1H-cyclopenta[1,2-a]phenanthrene-7-yl]methanesulfonamide] the IC50 was 1.41 µM.
